# Experiments:
# PA 100036 = experiment: Checkerboard combination study / MIC; format: cell-based, Pseudomonas aeruginosa
# PA 260 = experiment: Checkerboard combination study / MIC; format: cell-based, Pseudomonas aeruginosa
# PA 262 = experiment: Checkerboard combination study / MIC; format: cell-based, Pseudomonas aeruginosa
# PA 264 = experiment: Checkerboard combination study / MIC; format: cell-based, Pseudomonas aeruginosa
# PA 91433 = experiment: Checkerboard combination study / MIC; format: cell-based, Pseudomonas aeruginosa; settings: for MICCombination (2) / FIC2: PA 91433
# PA 101243 = experiment: Checkerboard combination study / MIC; format: cell-based, Pseudomonas aeruginosa; settings: PA 101243
# [1] = test system: Galleria mellonella larvae; experiment: Galleria mellonella tolerability study; settings: 100 mg/kg and 200 mg/kg injected alone; after 48 h
# Experimental: In vitro and in vivo discordances have been observed in antimicrobial chemotherapy, thus, therapeutic efficacy may not necessarily be reliably extrapolated based on in vitro data alone. […] Colistin (100 mg/kg), an antibiotic well known for its toxicity towards eukaryotes, served as a positive control for this experiment while PBS served as negative control. […] Survivability was scored for a total of 4 days.
# In vivo larvae-infection model. In vivo synergistic effects were determined using Galleria mellonella infection model, as previously described (20). Briefly, worms were purchased from The Worm Lady® Live Feeder (ON, Canada), stored in their natural habitat at 16° C., and used within 10 days of delivery. The worms (average weight of 250 mg) were used for tolerability and efficacy studies. Tolerability study was performed by injecting 10 μL of antimicrobial agents only at concentrations equivalent to 100 mg/kg or 200 mg/kg. The worms (ten in each group) were incubated at 37° C. and monitored for 96 h. […] Overnight grown culture of respective MDR P. aeruginosa isolate was standardized to 0.5 McFarland standard and diluted in PBS to a final concentration of […]. 10 μL of this solution (5 CFU) was injected into each worm and incubated for 3 h at 37° C. […] Worms treated with 10 μL PBS or high concentrations of test antibiotics served as negative and positive control, respectively. The worms were incubated at 37° C. in Petri dishes lined with filter paper and scored for survivability every 6 h for up to 48 h. This experiment was repeated to give a total of thirty worms (n=30) in each case. Survival data curves were plotted using Kaplan-Meier survival analysis.
# [2] = test system: MDR PA101885-challenged larvae; experiment: Galleria mellonella infection model, efficacy; format: in vivo
# Experimental: In vivo synergistic effects were determined using Galleria mellonella infection model, as previously described (20). Briefly, worms were purchased from The Worm Lady® Live Feeder (ON, Canada), stored in their natural habitat at 16° C., and used within 10 days of delivery. The worms (average weight of 250 mg) were used for tolerability and efficacy studies. Tolerability study was performed by injecting 10 μL of antimicrobial agents only at concentrations equivalent to 100 mg/kg or 200 mg/kg. The worms (ten in each group) were incubated at 37° C. and monitored for 96 h. For efficacy studies, the virulence and bacterial load required to kill 100% of the worms within 12-18 h (with no treatment) was first determined, which is approximately 5 CFU. Overnight grown culture of respective MDR P. aeruginosa isolate was standardized to 0.5 McFarland standard and diluted in PBS to a final concentration of 5×10^2CFU/mL. 10 μL of this solution (5 CFU) was injected into each worm and incubated for 3 h at 37° C. […] Worms treated with 10 μL PBS or high concentrations of test antibiotics served as negative and positive control, respectively. The worms were incubated at 37° C. in Petri dishes lined with filter paper and scored for survivability every 6 h for up to 48 h. This experiment was repeated to give a total of thirty worms (n=30) in each case. Survival data curves were plotted using Kaplan-Meier survival analysis.
substance,measurement,setting,value
5-O-(Octylcyclam)-tobramycin.9TFA [Compound 2],MICCombination (2),PA 100036; MIC of 2 combined with AZT,8 µg/mL
same,MICCombination (2),PA 100036; MIC of 2 combined with CAZ,8 µg/mL
same,MICCombination (2),PA 100036; MIC of 2 combined with CEF,16 µg/mL
same,MICCombination (2),PA 100036; MIC of 2 combined with DOR,16 µg/mL
same,MICCombination (2),PA 100036; MIC of 2 combined with MER,2 µg/mL
same,MICCombination (2),PA 100036; MIC of 2 combined with PIP,16 µg/mL
same,FIC2,PA 100036; with AZT,<0.0313
same,FIC2,PA 100036; with CAZ,<0.0313
same,FIC2,PA 100036; with CEF,<0.0625
same,FIC2,PA 100036; with DOR,<0.0625
same,FIC2,PA 100036; with MER,<0.0078
same,FIC2,PA 100036; with PIP,<0.0625
same,MICCombination (2),PA 260; MIC of 2 combined with AZT,16 µg/mL
same,MICCombination (2),PA 260; MIC of 2 combined with CAZ,4 µg/mL
same,MICCombination (2),PA 260; MIC of 2 combined with CEF,8 µg/mL
same,MICCombination (2),PA 260; MIC of 2 combined with DOR,8 µg/mL
same,MICCombination (2),PA 260; MIC of 2 combined with MER,8 µg/mL
same,MICCombination (2),PA 260; MIC of 2 combined with PIP,16 µg/mL
same,FIC2,PA 260; with AZT,<0.0625
same,FIC2,PA 260; with CAZ,<0.0156
same,FIC2,PA 260; with CEF,<0.0313
same,FIC2,PA 260; with DOR,<0.0313
same,FIC2,PA 260; with MER,<0.0313
same,FIC2,PA 260; with PIP,<0.0625
same,MICCombination (2),PA 262; MIC of 2 combined with AZT,8 µg/mL
same,MICCombination (2),PA 262; MIC of 2 combined with CAZ,16 µg/mL
same,MICCombination (2),PA 262; MIC of 2 combined with CEF,16 µg/mL
same,MICCombination (2),PA 262; MIC of 2 combined with DOR,16 µg/mL
same,MICCombination (2),PA 262; MIC of 2 combined with MER,16 µg/mL
same,MICCombination (2),PA 262; MIC of 2 combined with PIP,4 µg/mL
same,FIC2,PA 262; with AZT,<0.0313
same,FIC2,PA 262; with CAZ,<0.0625
same,FIC2,PA 262; with CEF,<0.0625
same,FIC2,PA 262; with DOR,<0.0625
same,FIC2,PA 262; with MER,<0.0625
same,FIC2,PA 262; with PIP,<0.0156
same,MICCombination (2),PA 264; MIC of 2 combined with AZT,8 µg/mL
same,MICCombination (2),PA 264; MIC of 2 combined with CAZ,8 µg/mL
same,MICCombination (2),PA 264; MIC of 2 combined with CEF,16 µg/mL
same,MICCombination (2),PA 264; MIC of 2 combined with DOR,4 µg/mL
same,MICCombination (2),PA 264; MIC of 2 combined with MER,4 µg/mL
same,MICCombination (2),PA 264; MIC of 2 combined with PIP,4 µg/mL
same,FIC2,PA 264; with AZT,<0.0313
same,FIC2,PA 264; with CAZ,<0.0313
same,FIC2,PA 264; with CEF,<0.0625
same,FIC2,PA 264; with DOR,<0.0156
same,FIC2,PA 264; with MER,<0.0156
same,FIC2,PA 264; with PIP,<0.0156
same,MICCombination (2),PA 91433; MIC of 2 combined with AZT,16 µg/mL
same,MICCombination (2),PA 91433; MIC of 2 combined with CAZ,0.25 µg/mL
same,MICCombination (2),PA 91433; MIC of 2 combined with CEF,16 µg/mL
same,MICCombination (2),PA 91433; MIC of 2 combined with DOR,8 µg/mL
same,MICCombination (2),PA 91433; MIC of 2 combined with MER,4 µg/mL
same,potentiation of meropenem,"PA 91433; by compound 2, colistin-resistant clinical isolate PA91433",64 fold
same,FIC2,PA 91433; with AZT,<0.0625
same,FIC2,PA 91433; with CAZ,<0.0010
same,FIC2,PA 91433; with CEF,<0.0625
same,FIC2,PA 91433; with DOR,<0.0313
same,FIC2,PA 91433; with MER,<0.0156
same,MICCombination (2),PA 101243; MIC of 2 combined with AZT,2 µg/mL
same,MICCombination (2),PA 101243; MIC of 2 combined with CAZ,1 µg/mL
same,MICCombination (2),PA 101243; MIC of 2 combined with CEF,0.25 µg/mL
same,MICCombination (2),PA 101243; MIC of 2 combined with DOR,0.25 µg/mL
same,MICCombination (2),PA 101243; MIC of 2 combined with MER,0.5 µg/mL
same,MICCombination (2),PA 101243; MIC of 2 combined with PIP,16 µg/mL
same,FIC2,PA 101243; with AZT,<0.0078
same,FIC2,PA 101243; with CAZ,<0.0039
same,FIC2,PA 101243; with CEF,<0.0010
same,FIC2,PA 101243; with DOR,<0.0010
same,FIC2,PA 101243; with MER,<0.0020
same,FIC2,PA 101243; with PIP,<0.0625
same,survival of larvae,[1],100%
same,"mortality of larvae, monotherapy","[2]; aztreonam […], meropenem 37.5 mg/kg, compound 2 100 mg/kg, after 24 h",100%
same,activity by itself against MDR PA101885,[2]; in vitro and in vivo,innately inactive
same,survival of larvae,"[2]; meropenem + compound 2, 25+25 mg/kg, after 24 h",0%
same,survival of larvae,"[2]; meropenem + compound 2, 37.5+37.5 mg/kg, after 24 h",85%
